The source of these data is US20110053993A1, “PRODRUGS OF DESAZADESFERROTHIOCIN POLYETHER ANALOGUES AS METAL CHELATION AGENTS” (FERROKIN BIOSCIENCES, INC., priority 2009, published 2011).

Structures are written as SMILES.

This series can be described thus: In vitro pharmacokinetic (metabolic) stability in human whole blood. It counts as in vitro ADME. As to conditions: 5 μM test compound, 37° C., time points 0, 0.5, 1, 4, 6 and 24 hours, LC/MS/MS, percent compound remaining. How it is done:
In Vitro Pharmacokinetic Stability Evaluation
Compounds were tested for metabolic stability in human whole blood. Such testing is commonly undertaken prior to or along with advanced preclinical testing in order to identify compounds with desirable pharmacokinetic properties. Into each of 6 centrifuge tubes was added 2 μL of test compound and 198 μL of human whole blood, taken from normal, healthy volunteers, to achieve a final concentration of 5 μM. Tubes were then incubated at 37° C. at approximately 100 rpm on an orbital shaker. One of the tubes was taken at designated time points including 0, 0.5, 1, 4, 6 and 24 hours. The reaction was stopped by the addition of 4 volumes of cold methanol. Samples were centrifuged at 20,000 rpm for 20 minutes to precipitate protein. A 200 μL aliquot of the supernatant was used for LC/MS/MS analysis for each compound at each time point. All experiments were performed in duplicate. The LC system comprised a Shimadzu liquid chromatograph separation system equipped with degasser DGU-20A3, solvent delivery unit LC-20AD, system controller CBM-20A, column oven CTO-10ASVP and CTC Analytics HTC PAL System. Mass spectrometric analysis was performed using an API 4000 instrument from AB Inc. (Canada) with an ESI interface. The data acquisition and control system were created using Analyst 1.5 software from ABI Inc. All calculations were carried out using Microsoft Excel (2003). Percent compound remaining at each time point was estimated by determining the peak areas from extracted ion chromatograms.
Turning to `COCCOCCOCCOc1cccc(C2=N[C@@](C)(C(=O)OC(C)C)CS2)c1O` [Example 1, (S)-isopropyl 2-(2-hydroxy-3-(2-(2-(2-methoxyethoxy)ethoxy)ethoxy)phenyl)-4-methyl-4,5-dihydrothiazole-4-carboxylate], the “Half Life” value was 1 to 4 h.
For `COCCOCCOCCOc1cccc(C2=N[C@@](C)(C(=O)O)CS2)c1OC(=O)N(C)c1ccccc1` [Example 5, (S)-2-(3-(2-(2-(2-methoxyethoxy)ethoxy)ethoxy)-2-(methyl(phenyl)carbamoyloxy)phenyl)-4-methyl-4,5-dihydrothiazole-4-carboxylic acid], the “Half Life” value was in the range of 0.5 to 1 h.
Take `COCCOCCOCCOc1cccc(C2=N[C@@](C)(C(=O)OC(C)C)CS2)c1OC(=O)N1CCCC1` [Example 2, (S)-isopropyl 2-(3-(2-(2-(2-methoxyethoxy)ethoxy)ethoxy)-2-(pyrrolidine-1-carbonyloxy)phenyl)-4-methyl-4,5-dihydrothiazole-4-carboxylate]: the “Half Life” value is greater than 24 h.
With `COCCOCCOCCOc1cccc(C2=N[C@@](C)(C(=O)O)CS2)c1OC(=O)N1CCCC1` [Example 3, (S)-2-(3-(2-(2-(2-methoxyethoxy)ethoxy)ethoxy)-2-(pyrrolidine-1-carbonyloxy)phenyl)-4-methyl-4,5-dihydrothiazole-4-carboxylic acid] the figure was 1 to 4 h.
Turning to `COCCOCCOCCOc1cccc(C2=N[C@@](C)(C(=O)O)CS2)c1OC(=O)C(C)C` [Example 6, (S)-2-(2-(isobutyryloxy)-3-(2-(2-(2-methoxyethoxy)ethoxy)ethoxy)phenyl)-4-methyl-4,5-dihydrothiazole-4-carboxylic acid], the “Half Life” value is 6 to 24 h.
For `COCCOCCOCCOc1cccc(C2=N[C@@](C)(C(=O)OC(C)C)CS2)c1OC(=O)N(C)c1ccccc1` [Example 4, (S)-isopropyl 2-(3-(2-(2-(2-methoxyethoxy)ethoxy)ethoxy)-2-(methyl(phenyl)carbamoyloxy)phenyl)-4-methyl-4,5-dihydrothiazole-4-carboxylate], the “Half Life” value is greater than 24 h.
